In patent US11613533B2, “Compounds useful for inhibiting RET kinase” (Eli Lilly and Company, priority 2020, dated 2023):
Changes are numbered by the printed parent chain.

How the values were obtained:
[1] = target: T1, KIF5B-RET WT in HEK293 cells (Homo sapiens, UniProt P07949); test: RET cell assay (In-Cell Western, phospho-RET Y1062), wildtype; type: cell-based; conditions: HEK293, doxycycline-induced KIF5B-RET WT, 1 hr compound treatment; read-out: EC50, inhibition of intracellular autophosphorylation of RET at tyrosine 1062, wildtype cells
T1 construct: expressed in transfected cells; host or cells: HEK293; the other entry of the earlier key: KIF5B (P33176, Kinesin-1 heavy chain)
T1 sequence (P07949 713-1063 limits assumed): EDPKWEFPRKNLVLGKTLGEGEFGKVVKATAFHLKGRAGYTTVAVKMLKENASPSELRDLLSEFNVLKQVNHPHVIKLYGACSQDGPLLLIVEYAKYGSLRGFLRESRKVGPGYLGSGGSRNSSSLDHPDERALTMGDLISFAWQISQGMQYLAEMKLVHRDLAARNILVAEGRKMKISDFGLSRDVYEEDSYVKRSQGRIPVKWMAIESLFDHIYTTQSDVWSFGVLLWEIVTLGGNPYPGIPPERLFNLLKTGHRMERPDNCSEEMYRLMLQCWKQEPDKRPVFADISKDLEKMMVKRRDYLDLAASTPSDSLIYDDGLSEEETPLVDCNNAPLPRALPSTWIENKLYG
Method: (§1) Compounds of formulas (I), (II), and (III) are screened for their ability to inhibit the intracellular autophosphorylation of RET at tyrosine 1062 as detected by In-Cell Western. HEK293 cells containing a doxycycline-inducible plasmid for inducible expression of KIF5B-RET WT and RET mutant forms V804M and G810S are seeded at 25,000 cells/well into black poly-D-lysine pre-coated 384-well plates (Corning, Catalog No. 356697). Expression of KIF5B-RET is induced with doxycycline at 1 μg/mL and cells are incubated at 37° C. overnight. Compounds are prepared in a threefold serial dilution in DMSO before further diluting 1:100 in media prior to the addition to the cells (0.1% final DMSO concentration). Compound treatment is performed for 1 hr at 37° C. followed by fixation of cells with 4% formaldehyde for 20 min at RT and cell permeabilisation with ice-cold MeOH for 10 min at RT. Cells are incubated with Intercept® blocking buffer (Li—COR, Catalogue No. 927-70010) for 1 hr at RT. Incubation with primary antibodies against human phospho-RET (Y1062) (R&D, Catalogue No. AF5009, 1/250 dilution) and human glyceraldehyde-3-phosphate dehydrogenase (clone 6C5, Merck, Catalog No. MAB374, 1/1000 dilution) are performed overnight at 4° C. Incubation with secondary antibodies IRDye® 800CW goat anti-rabbit IgG (Li—COR, Catalogue No. 926-32211, 1/1000 dilution) and IRDye® 680CW goat anti-mouse IgG (Li—COR, Catalogue No. 926-68070, 1/1000 dilution) are performed for 1 hr at RT. All antibody dilutions are done in Intercept® blocking buffer containing 0.05% Tween20. After washing cells with PBS-T (Cell Signaling technology, Catalogue No. 9809), the images are acquired on a Li—COR Odyssey LCx at 700 and 800 nm. Percent of DMSO control is calculated with 100% signal referring to control conditions containing no compound (0.4% DMSO only) and 0% signal represented by conditions containing control compound. The % of DMSO control values are fit to a 4 parameter logistic curve, and the determined EC50 value is defined as the estimated concentration of inhibitor at the inflexion point of the fitted curve.

[2] = target: T2, KIF5B-RET mutant form V804M in HEK293 cells (Homo sapiens, UniProt P07949, V804M); test: RET cell assay (In-Cell Western, phospho-RET Y1062), V804M; type: cell-based; conditions: HEK293, doxycycline-induced KIF5B-RET V804M, 1 hr compound treatment; read-out: EC50, inhibition of intracellular autophosphorylation of RET at tyrosine 1062, V804M cells
T2 construct: expressed in transfected cells; host or cells: HEK293; the other entry of the earlier key: KIF5B (P33176, Kinesin-1 heavy chain)
T2 sequence (P07949 713-1063 V804M limits assumed): T1 sequence (P07949 713-1063 limits assumed) with V92M
Method: as §1

SMILES	EC50 [1] [nM]	EC50 [2] [nM]
CCC(C)(C)c1cc(NC(=O)C(C)c2ccc(-c3nn(C(C)C)c(N)c3C(N)=O)cc2)no1 (single isomer, unassigned; isomer 2) [Example 52, 5-Amino-1-isopropyl-3-[4-(1-[[5-(2-methylbutan-2-yl)-1,2-oxazol-3-yl]carbamoyl]ethyl)phenyl]pyrazole-4-carboxamide, Isomer 2]	< 100	< 100
CC(C(=O)Nc1cc(C(C)(C)C(F)(F)F)no1)c1ccc(-c2nn(C(C)C)c(N)c2C(N)=O)cn1 (single isomer, unassigned; isomer 2) [Example 90, 5-Amino-1-isopropyl-3-[6-[1-methyl-2-oxo-2-[[3-(2,2,2-trifluoro-1,1-dimethyl-ethyl)isoxazol-5-yl]amino]ethyl]-3-pyridyl]pyrazole-4-carboxamide, Isomer 2]	< 100	< 100
CC(C(=O)Nc1cc(C(C)(C)C(C)(F)F)on1)c1ccc(-c2nn(C(C)C)c(N)c2C(N)=O)cc1 (single isomer, unassigned; isomer 2) [Example 76, 5-Amino-3-[4-(1-[[5-(3,3-difluoro-2-methylbutan-2-yl)-1,2-oxazol-3-yl]carbamoyl]ethyl)phenyl]-1-isopropylpyrazole-4-carboxamide, Isomer 2]	< 100	< 100
CC(C(=O)Nc1cc(-c2ccc(Cl)cc2Cl)no1)c1ccc(-c2nn(C(C)C)c(N)c2C(N)=O)cn1 (single isomer, unassigned; isomer 2) [Example 94, 5-Amino-1-isopropyl-3-[6-[2-[[3-(2,4-dichlorophenyl)isoxazol-5-yl]amino]-1-methyl-2-oxo-ethyl]-3-pyridyl]pyrazole-4-carboxamide, Isomer 2]	< 100	< 100
CC(C(=O)Nc1cc(C(C)(C)C(F)(F)F)no1)c1ccc(-c2nn(C(C)C)c(N)c2C(N)=O)cc1 (single isomer, unassigned; isomer 1) [Example 17, 5-Amino-1-isopropyl-3-[4-(1-[[3-(1,1,1-trifluoro-2-methylpropan-2-yl)-1,2-oxazol-5-yl]carbamoyl]ethyl)phenyl]pyrazole-4-carboxamide, Isomer 1]	< 100	< 100
CC(C(=O)Nc1cc(-c2ccc(Cl)cc2Cl)no1)c1ccc(-c2nn(C(C)C)c(N)c2C(N)=O)cc1 (single isomer, unassigned; isomer 1) [Example 45, 5-Amino-3-[4-(1-[[3-(2,4-dichlorophenyl)-1,2-oxazol-5-yl]carbamoyl]ethyl)phenyl]-1-isopropylpyrazole-4-carboxamide, Isomer 1]	< 100	< 100
CCC(C)(C)c1cc(NC(=O)C(C)c2ccc(-c3nn(C(C)C)c(N)c3C(N)=O)cn2)on1 (single isomer, unassigned; isomer 2) [Example 84, 5-Amino-1-isopropyl-3-[6-[2-[[3-(1,1-dimethylpropyl)isoxazol-5-yl]amino]-1-methyl-2-oxo-ethyl]-3-pyridyl]pyrazole-4-carboxamide, Isomer 2]	< 100	< 100
CCC(C)(C)c1cc(NC(=O)C(C)c2ccc(-c3nn(C(C)C)c(N)c3C(N)=O)cc2)on1 (single isomer, unassigned; isomer 1) [Example 15, 5-Amino-1-isopropyl-3-[4-(1-[[3-(2-methylbutan-2-yl)-1,2-oxazol-5-yl]carbamoyl]ethyl)phenyl]pyrazole-4-carboxamide, Isomer 1]	< 100	< 100
